In patent publication US8592407B2, “Pyrrolo[2,1-c][1,4] benzodiazepine derivatives with dithiocarbamate side chains and process for the preparation thereof” (Council of Scientific & Industrial Research, priority 2008, dated 2013):

Columns and labels:
Colon HCT-15 = test: Preliminary in vitro cytotoxicity on six cell lines; settings: unit assumed
Ovary OVCAR-5 = test: as above
Neuroblastoma IMR-32 = test: as above
Lung A-549 = test: as above
Liver HEP-2 = test: as above; settings: unit assumed
calf thymus DNA (CT-DNA) = test: Thermal denaturation studies with duplex-form calf thymus DNA; format: binding; settings: [PBD]:[DNA] 1:5, CT-DNA 100 μM, ligand 20 μM, pH 7.00; for ΔTm after incubation at 37° C. for 0 h: 0 h at 37° C.; for ΔTm after incubation at 37° C. for 18 h: 18 h at 37° C.
Experimental: Compounds have been subjected to thermal denaturation studies with duplex-form calf thymus DNA (CT-DNA) using an modification of a reported procedure (Newman, M. S. Carcinog-compr. Surv. 1976, 1, 203; (b) Hecht, S. S.; Loy, M.; Hoffman, Carcinog-compr. Surv. 1976, 1, 325). Working solutions in aqueous buffer (10 mM NaH2PO4/Na2HPO4, 1 mM Na2EDTA, pH 7.00+0.01) containing CT-DNA (100 μm in phosphate) and the PBD (20 μm) have been prepared by addition of concentrated PBD solutions in DMSO to obtain a fixed [PBD]/[DNA] molar ratio of 1:5. The DNA−PBD solutions have been incubated at 37° C. for 0 and 18 h prior to analysis. Samples have been monitored at 260 nm using a Beckman DU-800 spectrophotometer fitted with high performance temperature controller, and heated at 1° C. min^−1
in the 40-110° C. range. DNA helix[…]coil transition temperatures (Tm) have been obtained from the maxima in the d(A260)/dT derivative plots. Drug-induced alterations in DNA melting behavior are given by: ΔTm=Tm(DNA+PBD)−Tm (DNA alone), where the Tm value for the PBD-free CT-DNA is 69.1±0.01.

Colon 502713 = test: Preliminary in vitro cytotoxicity on six cell lines; settings: concentration (mg/ml) 1 × 10^−5 M
[1] = concentration (mg/ml) 1 × 10^−6 M
[2] = concentration (mg/ml) 1 × 10^−5 M

With `COc1cccc2c1C(=O)c1c(O)c3c(c(O)c1C2=O)C[C@@](O)(C(=O)CO)C[C@@H]3O[C@H]1C[C@H](N)[C@H](O)[C@H](C)O1` [Adriamycin, reference compound] as the compound, how does the Preliminary in vitro cytotoxicity data (Colon HCT-15; [1]) read?
The Preliminary in vitro cytotoxicity data was 58%.

What about the “Preliminary in vitro cytotoxicity data” value (Ovary OVCAR-5; [1]) of the same compound?
Its value is 30.

And the “Preliminary in vitro cytotoxicity data” value (Neuroblastoma IMR-32; [1])?
Its value is 80.

And the “Preliminary in vitro cytotoxicity data” value (Lung A-549; [1])?
The value was 61.

What about the Preliminary in vitro cytotoxicity data (Liver HEP-2; [1]) of the same compound?
Its Preliminary in vitro cytotoxicity data is 31%.

`COc1cc2c(cc1OCCCCCN1CCN(C(=S)SCCC(C#N)(c3ccccc3)c3ccccc3)CC1)N=C[C@@H]1CCCN1C2=O` [Compound 12d, 3-cyano-3,3-diphenylpropyl 4-(5-[(11aS)-7-(methyloxy)-5-oxo-2,3,5,11a-tetrahydro-1H-benzo[e]pyrrolo[1,2-a][1,4]diazepin-8-yl]oxypentyl)hexahydro-1-pyrazinecarbodithioate] was tested. Which “ΔTm after incubation at 37° C. for 0 h” value (calf thymus DNA (CT-DNA)) did it give?
The value was 2.0 °C.

What about the “ΔTm after incubation at 37° C. for 18 h” value (calf thymus DNA (CT-DNA)) of the same compound?
The value was 2.1 °C.

Which results are given for `COc1cc2c(cc1OCCCSC(=S)N1CCN(CCCN3C(=O)c4cccc5cccc(c45)C3=O)CC1)N=C[C@@H]1CCCN1C2=O` [Compound 13b, 3-[(11aS)-7-(methyloxy)-5-oxo-2,3,5,11a-tetrahydro-1H-benzo[e]pyrrolo[1,2-a][1,4]diazepin-8-yl]oxypropyl4-[3-(1,3-dioxo-2,3-dihydro-1H-benzo[de]isoquinolin-2-yl)propyl]hexahydro-1-pyrazinecarbodithioate]?
ΔTm after incubation at 37° C. for 0 h (calf thymus DNA (CT-DNA)): 3.1 °C; ΔTm after incubation at 37° C. for 18 h (calf thymus DNA (CT-DNA)): 3.3 °C

What does the source list for `COc1cc2c(cc1OCCCCSC(=S)N1CCN(CCCN3C(=O)c4cccc5cccc(c45)C3=O)CC1)N=C[C@@H]1CCCN1C2=O` [Compound 13c, 4-[(11aS)-7-(methyloxy)-5-oxo-2,3,5,11a-tetrahydro-1H-benzo[e]pyrrolo[1,2-a][1,4]diazepin-8-yl]oxybutyl4-[3-(1,3-dioxo-2,3-dihydro-1H-benzo[de]isoquinolin-2-yl)propyl]hexahydro-1-pyrazinecarbodithioate]?
ΔTm after incubation at 37° C. for 0 h (calf thymus DNA (CT-DNA)): 5.0 °C; ΔTm after incubation at 37° C. for 18 h (calf thymus DNA (CT-DNA)): 5.0 °C

`COc1cc2c(cc1OCCCCCSC(=S)N1CCN(CCCN3C(=O)c4cccc5cccc(c45)C3=O)CC1)N=C[C@@H]1CCCN1C2=O` [Compound 13d, 5-[(11aS)-7-(methyloxy)-5-oxo-2,3,5,11a-tetrahydro-1H-benzo[e]pyrrolo[1,2-a][1,4]diazepin-8-yl]oxypentyl4-[3-(1,3-dioxo-2,3-dihydro-1H-benzo[de]isoquinolin-2-yl)propyl]hexahydro-1-pyrazinecarbodithioate] was tested. Which “ΔTm after incubation at 37° C. for 0 h” value (calf thymus DNA (CT-DNA)) did it give?
The value was 4.0 °C.

What about the “ΔTm after incubation at 37° C. for 18 h” value (calf thymus DNA (CT-DNA)) of the same compound?
Its value is 4.6 °C.

How did the “Preliminary in vitro cytotoxicity data” value (Colon 502713) turn out when `COc1cc2c(cc1OCCCCSC(=S)N1CCN(C)CC1)N=C[C@@H]1CCCN1C2=O` [Compound 14c, 4-[(11aS)-7-(methyloxy)-5-oxo-2,3,5,11a-tetrahydro-1H-benzo[e]pyrrolo[1,2-a][1,4]diazepin-8-yl]oxybutyl4-methylhexahydro-1-pyrazinecarbodithioate] was run?
The value was 75.

What about the Preliminary in vitro cytotoxicity data (Colon HCT-15; [2]) of the same compound?
The Preliminary in vitro cytotoxicity data was 82%.

What about the “ΔTm after incubation at 37° C. for 0 h” value (calf thymus DNA (CT-DNA)) of the same compound?
Its value is 2.1 °C.

And the “ΔTm after incubation at 37° C. for 18 h” value (calf thymus DNA (CT-DNA))?
The value was 2.2 °C.

And the “Preliminary in vitro cytotoxicity data” value (Ovary OVCAR-5; [2])?
Its value is 36.

What about the “Preliminary in vitro cytotoxicity data” value (Neuroblastoma IMR-32; [2]) of the same compound?
The value was 86.

What about the “Preliminary in vitro cytotoxicity data” value (Lung A-549; [2]) of the same compound?
Its value is 50.

What about the Preliminary in vitro cytotoxicity data (Liver HEP-2; [2]) of the same compound?
Its Preliminary in vitro cytotoxicity data is 66%.

With `COc1cc2c(cc1OCCCCCSC(=S)N1CCN(C)CC1)N=C[C@@H]1CCCN1C2=O` [Compound 14d, 5-[(11aS)-7-(methyloxy)-5-oxo-2,3,5,11a-tetrahydro-1H-benzo[e]pyrrolo[1,2-a][1,4]diazepin-8-yl]oxypentyl4-methylhexahydro-1-pyrazinecarbodithioate] as the compound, how does the “Preliminary in vitro cytotoxicity data” value (Colon 502713) read?
Its value is 78.

And the Preliminary in vitro cytotoxicity data (Colon HCT-15; [2])?
The Preliminary in vitro cytotoxicity data was 50%.

What about the “ΔTm after incubation at 37° C. for 0 h” value (calf thymus DNA (CT-DNA)) of the same compound?
Its value is 6.0 °C.

What about the “ΔTm after incubation at 37° C. for 18 h” value (calf thymus DNA (CT-DNA)) of the same compound?
Its value is 10.9 °C.

And the “Preliminary in vitro cytotoxicity data” value (Ovary OVCAR-5; [2])?
Its value is 22.

What about the “Preliminary in vitro cytotoxicity data” value (Neuroblastoma IMR-32; [2]) of the same compound?
Its value is 95.

And the “Preliminary in vitro cytotoxicity data” value (Lung A-549; [2])?
Its value is 31.

And the Preliminary in vitro cytotoxicity data (Liver HEP-2; [2])?
The Preliminary in vitro cytotoxicity data was 66%.

What does the source list for `COc1cc2c(cc1O)N=CC1CCCN1C2=O` (stereo not shown) [DC-81, reference compound]?
ΔTm after incubation at 37° C. for 0 h (calf thymus DNA (CT-DNA)): 0.3 °C; ΔTm after incubation at 37° C. for 18 h (calf thymus DNA (CT-DNA)): 0.7 °C
